Where a name gives a salt, the structure may show the parent alone. Read-outs that look alike come from different tables or passages of the source.
Molecular target: SHP2 (Homo sapiens (Human), UniProt Q06124)
Test: SHP2 Biochemical Assay (DiFMUP conversion, pIRS1 activating peptide)
Description: SHP2 activity was monitored by measuring the conversion of the surrogate substrate 6,8-difluoromethylumbelliferyl phosphate (DiFMUP) to the fluorescent product, 6,8-difluoromethylumbelliferone (DiFMU).
SHP2 was pre-incubated with test compounds and the activating peptide pIRS1 (H2N-LN(pY)IDLDLV-(PEG)8-LST(pY)ASINFQK-amide) for 30 min, prior to addition of the […] (DiFMUP), (Thermo Fisher D6567). […] Rates of reaction were then measured over 30 min by monitoring fluorescence on a BMG Pherastar reader at excitation 360 nm/emission 450 nm. IC50 values were calculated from the normalized dose-response plots using four parameter logistic curve fit.

[1] = DiFMUP substrate, 0.25 μM pIRS1 peptide, 30 min pre-incubation, average where more than one data point, read-out: SHP2 (IC50)

Sequence of SHP2 (Q06124 whole entry): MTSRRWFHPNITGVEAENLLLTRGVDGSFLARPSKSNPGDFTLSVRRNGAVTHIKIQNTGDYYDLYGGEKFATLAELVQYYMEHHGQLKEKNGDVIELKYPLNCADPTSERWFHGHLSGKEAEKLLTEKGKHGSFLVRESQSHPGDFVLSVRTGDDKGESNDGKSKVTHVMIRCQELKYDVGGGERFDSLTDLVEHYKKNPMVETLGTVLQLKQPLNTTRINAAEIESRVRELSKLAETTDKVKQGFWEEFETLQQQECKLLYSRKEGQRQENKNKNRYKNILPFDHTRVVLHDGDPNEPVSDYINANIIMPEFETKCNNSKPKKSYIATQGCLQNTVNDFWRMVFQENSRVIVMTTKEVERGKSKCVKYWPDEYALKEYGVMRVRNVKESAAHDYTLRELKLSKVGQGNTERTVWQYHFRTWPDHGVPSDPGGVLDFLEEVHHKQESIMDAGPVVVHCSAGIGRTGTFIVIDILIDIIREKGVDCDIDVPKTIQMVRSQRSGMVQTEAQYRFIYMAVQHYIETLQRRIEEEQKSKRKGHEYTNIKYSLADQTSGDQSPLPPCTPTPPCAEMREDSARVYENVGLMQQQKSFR

SMILES | IC50 [1] | IC50
CCn1cc2c(Cl)c(-c3c[nH]c4nc(N5[C@@H]6CC[C@H]5C[C@@H](N)C6)cnc34)ccc2n1 [Example 26, endo-8-[7-(4-chloro-2-ethyl-2H-indazol-5-yl)-5H-pyrrolo[2,3-b]pyrazin-3-yl]-8-azabicyclo[3.2.1]octan-3-amine, hydrochloride salt] | 14 nM | 
CCn1cc2c(Cl)c(-c3c[nH]c4nc(N5[C@@H]6CC[C@H]5C[C@H](N)C6)cnc34)ccc2n1 [Example 28, exo-8-[7-(4-chloro-2-ethyl-2H-indazol-5-yl)-5H-pyrrolo[2,3-b]pyrazin-3-yl]-8-azabicyclo[3.2.1]octan-3-amine, hydrochloride salt] | 9.6 nM | 
Cn1cc2c(Cl)c(-c3c[nH]c4nc(N5CC[C@@H](N)[C@H](F)C5)cnc34)ccc2n1 [Example 29, (3R,4R)-1-[7-(4-chloro-2-methyl-2H-indazol-5-yl)-5H-pyrrolo[2,3-b]pyrazin-3-yl]-3-fluoropiperidin-4-amine, hydrochloride salt] | 41 nM | 
Cn1cc2c(Cl)c(-c3c[nH]c4nc(N5CC[C@H](N)[C@@H](F)C5)cnc34)ccc2n1 [Example 30, (3S,4S)-1-[7-(4-chloro-2-methyl-2H-indazol-5-yl)-5H-pyrrolo[2,3-b]pyrazin-3-yl]-3-fluoropiperidin-4-amine, hydrochloride salt] | 150 nM | 
Cn1cc2c(Cl)c(-c3c[nH]c4nc(N5CC[C@H](N)[C@@H](O)C5)cnc34)ccc2n1 [Example 31, (3S,4S)-4-amino-1-[7-(4-chloro-2-methyl-2H-indazol-5-yl)-5H-pyrrolo[2,3-b]pyrazin-3-yl]piperidin-3-ol, hydrochloride salt] | 22 nM | 
Cn1cc2c(Cl)c(-c3c[nH]c4nc(N5CC[C@@H](N)[C@@H](F)C5)cnc34)ccc2n1 [Example 32, (3S,4R)-1-[7-(4-chloro-2-methyl-2H-indazol-5-yl)-5H-pyrrolo[2,3-b]pyrazin-3-yl]-3-fluoropiperidin-4-amine, hydrochloride salt] | 56 nM | 
Cn1cc2c(Cl)c(-c3c[nH]c4nc(N5CC[C@H](N)[C@H](F)C5)cnc34)ccc2n1 [Example 33, (3R,4S)-1-[7-(4-chloro-2-methyl-2H-indazol-5-yl)-5H-pyrrolo[2,3-b]pyrazin-3-yl]-3-fluoropiperidin-4-amine, hydrochloride salt] | 33 nM | 
Cn1cc2c(Cl)c(-c3c[nH]c4nc(N5[C@@H]6CC[C@H]5C[C@@H](N)C6)c(CO)nc34)ccc2n1 [Example 34, {3-[endo-3-amino-8-azabicyclo[3.2.1]octan-8-yl]-7-(4-chloro-2-methyl-2H-indazol-5-yl)-5H-pyrrolo[2,3-b]pyrazin-2-yl}methanol, hydrochloride salt] | 13 nM | 
N[C@H]1C[C@H]2CC[C@@H](C1)N2c1cnc2c(-c3ccc4ccc(=O)[nH]c4c3Cl)c[nH]c2n1 [Example 35, 7-{3-[endo-3-amino-8-azabicyclo[3.2.1]octan-8-yl]-5H-pyrrolo[2,3-b]pyrazin-7-yl}-8-chloro-1,2-dihydroquinolin-2-one, hydrochloride salt] | 190 nM | 
Cn1nc2ccc(-c3c[nH]c4nc(N5[C@@H]6CC[C@H]5C[C@@H](N)C6)cnc34)c(Cl)c2c1CO [Example 37, (5-{3-[endo-3-amino-8-azabicyclo[3.2.1]octan-8-yl]-5H-pyrrolo[2,3-b]pyrazin-7-yl}-4-chloro-2-methyl-2H-indazol-3-yl)methanol, methanesulfonic acid salt] | 51 nM | 
Cn1cc2c(F)c(-c3c[nH]c4nc(N5[C@@H]6CC[C@H]5C[C@@H](N)C6)cnc34)ccc2n1 [Example 38, endo-8-[7-(4-fluoro-2-methyl-2H-indazol-5-yl)-5H-pyrrolo[2,3-b]pyrazin-3-yl]-8-azabicyclo[3.2.1]octan-3-amine] | 53 nM | 
N[C@H]1C[C@H]2CC[C@@H](C1)N2c1cnc2c(-c3ccc4nc(C5CCOC5)sc4c3Cl)c[nH]c2n1 (stereo partly drawn) [Example 39, endo-8-{7-[7-chloro-2-(oxolan-3-yl)-1,3-benzothiazol-6-yl]-5H-pyrrolo[2,3-b]pyrazin-3-yl}-8-azabicyclo[3.2.1]octan-3-amine, dihydrochloride salt] |  | 6.9 nM
Cc1nc2c(-c3ccc4nn(C)cc4c3Cl)n[nH]c2nc1N1[C@@H]2CC[C@H]1C[C@H](N)C2 [Example 40, exo-8-[3-(4-chloro-2-methyl-2H-indazol-5-yl)-5-methyl-1H-pyrazolo[3,4-b]pyrazin-6-yl]-8-azabicyclo[3.2.1]octan-3-amine, dihydrochloride salt] | 10 nM | 
Cn1nc2ccc(-c3c[nH]c4nc(N5[C@@H]6CC[C@H]5C[C@H](N)C6)cnc34)c(Cl)c2c1Cl [Example 41, exo-8-[7-(3,4-dichloro-2-methyl-2H-indazol-5-yl)-5H-pyrrolo[2,3-b]pyrazin-3-yl]-8-azabicyclo[3.2.1]octan-3-amine, hydrochloride salt] | 3.6 nM | 
COCc1nc2ccc(-c3c[nH]c4nc(N5[C@@H]6CC[C@H]5C[C@@H](N)C6)cnc34)c(Cl)c2s1 [Example 43, endo-8-{7-[7-chloro-2-(methoxymethyl)-1,3-benzothiazol-6-yl]-5H-pyrrolo[2,3-b]pyrazin-3-yl}-8-azabicyclo[3.2.1]octan-3-amine, hydrochloride salt] | 5.8 nM | 
N[C@H]1C[C@H]2CC[C@@H](C1)N2c1cnc2c(-c3ccc4nc(CO)sc4c3Cl)c[nH]c2n1 [Example 44, (6-{3-[endo-3-amino-8-azabicyclo[3.2.1]octan-8-yl]-5H-pyrrolo[2,3-b]pyrazin-7-yl}-7-chloro-1,3-benzothiazol-2-yl)methanol, hydrochloride salt] | 6.8 nM | 
Cc1nc2c(-c3ccc4nn(C)cc4c3Cl)[nH]nc2nc1N1[C@@H]2CC[C@H]1CC(N)C2 (stereo partly drawn) [Example 48, endo-8-[3-(4-Chloro-2-methyl-2H-indazol-5-yl)-5-methyl-1H-pyrazolo[3,4-b]pyrazin-6-yl]-8-azabicyclo[3.2.1]octan-3-amine, hydrochloride salt] | 17 nM | 
CN(C)C(=O)Cn1cc2c(Cl)c(-c3c[nH]c4nc(N5[C@@H]6CC[C@H]5C[C@@H](N)C6)cnc34)ccc2n1 [Example 49, 2-(5-{3-[endo-3-amino-8-azabicyclo[3.2.1]octan-8-yl]-5H-pyrrolo[2,3-b]pyrazin-7-yl}-4-chloro-2H-indazol-2-yl)-N,N-dimethylacetamide] | 15 nM | 
Cn1cc2c(Cl)c(-c3c[nH]c4nc(N5[C@@H]6CC[C@H]5C[C@@H](N)C6)cnc34)cc(F)c2n1 [Example 50, endo-8-[7-(4-chloro-7-fluoro-2-methyl-2H-indazol-5-yl)-5H-pyrrolo[2,3-b]pyrazin-3-yl]-8-azabicyclo[3.2.1]octan-3-amine] | 31 nM | 
Cn1nc2ccc(-c3c[nH]c4nc(N5[C@@H]6CC[C@H]5C[C@@H](N)C6)cnc34)c(Cl)c2n1 [Example 51, endo-8-[7-(4-chloro-2-methyl-2H-1,2,3-benzotriazol-5-yl)-5H-pyrrolo[2,3-b]pyrazin-3-yl]-8-azabicyclo[3.2.1]octan-3-amine] | 29 nM | 
Cc1nc2ccc(-c3c[nH]c4nc(N5[C@@H]6CC[C@H]5C[C@@H](N)C6)cnc34)c(Cl)c2c(=O)n1C [Example 52, 6-{3-[endo-3-amino-8-azabicyclo[3.2.1]octan-8-yl]-5H-pyrrolo[2,3-b]pyrazin-7-yl}-5-chloro-2,3-dimethyl-3,4-dihydroquinazolin-4-one, methanesulfonic acid salt] |  | 13 nM
CC(C)(O)Cn1cc2c(Cl)c(-c3c[nH]c4nc(N5[C@@H]6CC[C@H]5C[C@@H](N)C6)cnc34)ccc2n1 [Example 53, 1-(5-{3-[endo-3-amino-8-azabicyclo[3.2.1]octan-8-yl]-5H-pyrrolo[2,3-b]pyrazin-7-yl}-4-chloro-2H-indazol-2-yl)-2-methylpropan-2-ol] | 29 nM | 
N[C@H]1C[C@H]2CC[C@@H](C1)N2c1cnc2c(-c3ccc4[nH]nc(Cl)c4c3Cl)c[nH]c2n1 [Example 54, endo-8-[7-(3,4-dichloro-1H-indazol-5-yl)-5H-pyrrolo[2,3-b]pyrazin-3-yl]-8-azabicyclo[3.2.1]octan-3-amine] | 10 nM | 
Cc1cc(-c2c[nH]c3nc(N4[C@@H]5CC[C@H]4C[C@@H](N)C5)cnc23)c(Cl)c2cn(C)nc12 [Example 55, endo-8-[7-(4-chloro-2,7-dimethyl-2H-indazol-5-yl)-5H-pyrrolo[2,3-b]pyrazin-3-yl]-8-azabicyclo[3.2.1]octan-3-amine] | 22 nM | 
Cn1cnc2ccc(-c3c[nH]c4nc(N5[C@@H]6CC[C@H]5C[C@@H](N)C6)cnc34)c(Cl)c2c1=O [Example 56, 6-{3-[endo-3-amino-8-azabicyclo[3.2.1]octan-8-yl]-5H-pyrrolo[2,3-b]pyrazin-7-yl}-5-chloro-3-methyl-3,4-dihydroquinazolin-4-one, hydrochloride salt] | 21 nM | 
CNC(=O)Cn1cc2c(Cl)c(-c3c[nH]c4nc(N5[C@@H]6CC[C@H]5C[C@@H](N)C6)cnc34)ccc2n1 [Example 57, 2-(5-{3-[endo-3-amino-8-azabicyclo[3.2.1]octan-8-yl]-5H-pyrrolo[2,3-b]pyrazin-7-yl}-4-chloro-2H-indazol-2-yl)-N-methylacetamide] | 23 nM | 
CN(C)C(=O)c1nc2ccc(-c3c[nH]c4nc(N5[C@@H]6CC[C@H]5C[C@@H](N)C6)cnc34)c(Cl)c2s1 [Example 59, 6-{3-[endo-3-amino-8-azabicyclo[3.2.1]octan-8-yl]-5H-pyrrolo[2,3-b]pyrazin-7-yl}-7-chloro-N,N-dimethyl-1,3-benzothiazole-2-carboxamide, hydrochloride salt] | 18 nM | 
